Tests used:
[1] = test system: ovariectomized Sprague-Dawley rats; assay: Morphine withdrawal, rat hot flash model; assay type: in vivo; settings: LRL data
Excerpt: Morphine withdrawal, rat hot flash model: Simpkins et al. (1983) first published morphine withdrawal in the rat as a putative model for hot flashes, based on observations highlighting the similarity of symptoms of gonadal steroid withdrawal to those of opioid withdrawal. Although less severe, the signs and symptoms associated with clinical hot flashes, or estrogen deficiency, in the rat parallel those produced by naloxone-precipitated withdrawal in morphine dependent rats, including: 1) an increase in tail skin temperature, 2) a surge in luteinizing hormone and 3) an increase in heart rate. Each of these responses are associated with an increase in sympathetic outflow, which is a current mechanistic hypothesis for hot flashes. […] A key feature of animal models, is that they mimic the treatment efficacy observed with the human disease. The morphine withdrawal hot flash model, either in its originally described form, or with the modifications described herein, is responsive to agents typically used in the treatment of human hot flashes. This includes various forms of estrogen (Simpkins et al., 1983; LRL data), clonidine (LRL data), tibolone (LRL data), and medroxyprogesterone (LRL data). Furthermore, the model is sensitive to agents known to be associated with the induction of hot flashes in postmenopausal women.
A modification of the original procedure of Simpkins et al. (1983) is used which employs ovariectomized Sprague-Dawley rats. […]
On day 21 post-ovariectomy, animals are given […] (80 mg/kg; IM) 2-hours after final administration of the test compound. […] Temperature monitoring is initiated 30 minutes after administration of […] and is recorded every 15 seconds for a 1-hr period. […] A sharp rise in tail skin temperature typically occurs within 5 minutes post-naloxone injection, and two quantitative endpoints are made: 1) tail skin temperature at 15 min post-naloxone, and 2) area under the temperature response curve for the 45-min post-naloxone measurement period. […] Uteri are also removed at this time, and wet weight recorded.

[2] = Phase III clinical studies; cited from earlier work

Compound	responsiveness of the morphine withdrawal hot flash model to agents typically used in the treatment of human hot flashes [1]	incidence of hot flash compared to placebo [2]
Clc1cccc(Cl)c1N=C1NCCN1 [clonidine]	responsive	
O=C(c1ccc(OCCN2CCCCC2)cc1)c1c(-c2ccc(O)cc2)sc2cc(O)ccc12 [raloxifene]		slight increased incidence of hot flash
C#C[C@]1(O)CC[C@H]2[C@@H]3[C@H](C)CC4=C(CCC(=O)C4)[C@H]3CC[C@@]21C [tibolone]	responsive	
medroxyprogesterone	responsive	

— patent US8217032B2, “Selective estrogen receptor modulators for the treatment of vasomotor symptoms” (Eli Lilly and Company, priority 2004, dated 2012)
